Results reported in patent US5620676A, “Biologically active ATP analogs” (priority 1995, dated 1997).
“Also recorded” adds a separate entry of the source. Like-named read-outs stand apart in the source and are kept apart here.

Key:
[1] = tested on: P2Y receptor (aorta endothelium); test: Relaxation of noradrenalin-contracted rabbit aorta; details: for activity/potency/selectivity in words, aorta: rabbit aorta endothelial P2Y receptor; for relaxation pD2, aorta: rabbit aorta, log molar units
[2] = tested on: P2Y receptors; test: Overall activity in P2Y receptor systems
Method: Phospholipase C activity: Stimulation of inositol phosphate formation by compounds of the present invention was measured in turkey erythrocyte membranes as described by Harden et al., supra and Boyer et al., supra. The K0.5 values were averaged from 3-8 independently determined dose-response curves for each compound. Briefly, one ml of washed turkey erythrocytes was incubated in inositol-free medium (DMEM; Gibco) with 0.5-1 mCi of 2-[^3 H]myoinositol (20 Ci/mmol; American Radiolabeled Chemicals Inc., St. Louis, Mo.)for 18-24 h in a humidified atmosphere of 95% air 5% CO2 at 37° C. Erythrocyte ghosts were prepared by rapid lysis in hypotonic buffer (5 mM sodium phosphate, pH 7.4, 5 mM MgCl2, 1 mM EGTA) as described by Boyer et al., supra. Phospholipase C activity was measured in 25 μl of [^3 H]inositol-labeled ghosts (≈175 μg of protein, 200-500,000 cpm/assay) in a medium containing 424 μM CaC12, 0.91 mM MgSO4, 2 mM EGTA, 115 mM KCl, 5 mM KH2 PO4, and 10 mM Hepes, pH 7.0. Assay (100 μl or 200 μl final volume) contained 1 μM GTPγS and the indicated concentrations of nucleotide analogs. Ghosts were incubated at 30° C. for 5 min, and total [^3 H]inositol phosphates were quantitated after purification by anion exchange chromatography according to Harden et al. (supra) and Boyer et al. (supra).
Muscular relaxation/contraction: Relaxant responses mediated via P2Y receptors were examined in guinea pig taenia coli, rabbit aorta, and rabbit mesenteric artery, as described by Hoyle et al. (Br. J. Pharmacol., 107, 367-374 (1992a)), Burnstock et al., (Br. J. Pharmacol., 90, 383-391 (1987a)), and Rubino et al., (Eur. J. Pharmacol., 212, 237-240 (1992)). Contractile responses mediated via P2X receptors were examined in the guinea pig urinary bladder and vas deferens, and rabbit saphenous artery, also using standard methods (see Hoyle et al., supra., 1992; Hoyle et al., Br. J. Pharmacol., 99, 617-621 (1990); and Burnstock et al., Br. J. Pharmacol., 90, 111-120 (1987b)).

[3] = tested on: P2X receptors; test: Overall activity in P2X receptor systems
[4] = target: T1, P2Y receptor (turkey erythrocyte membranes) (Meleagris gallopavo, UniProt P49652); test: Stimulation of phospholipase C (inositol phosphate formation) in turkey erythrocyte membranes; assay type: biochemical; details: for activity/potency in words, turkey erythrocyte / EC50: turkey erythrocyte membranes; for EC50: mean ± S.E.M. for at least 2 determinations, read-out: phosphatidyl inositol metabolism (K0.5, nM) erythrocyte
T1 construct: from tissue; host or cells: washed turkey erythrocytes, ghosts prepared by hypotonic lysis
T1 sequence (P49652 whole entry): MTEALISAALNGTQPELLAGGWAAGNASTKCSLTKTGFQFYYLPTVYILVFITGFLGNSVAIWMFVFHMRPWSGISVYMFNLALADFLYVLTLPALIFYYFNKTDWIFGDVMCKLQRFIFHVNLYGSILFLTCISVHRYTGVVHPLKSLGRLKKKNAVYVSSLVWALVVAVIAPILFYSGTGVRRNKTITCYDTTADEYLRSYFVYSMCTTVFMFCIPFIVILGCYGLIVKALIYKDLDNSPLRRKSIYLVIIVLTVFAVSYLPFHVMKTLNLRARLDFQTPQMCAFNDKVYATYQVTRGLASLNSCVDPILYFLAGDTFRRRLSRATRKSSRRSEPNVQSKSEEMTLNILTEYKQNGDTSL
Procedure, shortened: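 Erythrocytes were labelled 18-24 h at 37 °C with [3H]myoinositol, and ghosts were made by hypotonic lysis. Ghosts (≈175 μg protein) were incubated 5 min at 30 °C in Hepes buffer pH 7.0 with 1 μM GTPγS and nucleotide analogs. Total [3H]inositol phosphates were purified by anion exchange; K0.5 averaged from 3-8 dose-response curves.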

[5] = tested on: P2Y receptor (mesenteric artery); test: Relaxation of rabbit mesenteric artery
[6] = target: T2, P2Y receptor (taenia coli) (Cavia porcellus, UniProt P59902); test: Relaxation of carbachol-contracted guinea pig taenia coli; details: for activity/potency in words, taenia coli: guinea pig taenia coli
T2 construct: Relaxant responses mediated via P2Y receptors were examined in guinea pig taenia coli; from tissue; host or cells: guinea pig taenia coli (carbachol-contracted)
T2 sequence (P59902 whole entry): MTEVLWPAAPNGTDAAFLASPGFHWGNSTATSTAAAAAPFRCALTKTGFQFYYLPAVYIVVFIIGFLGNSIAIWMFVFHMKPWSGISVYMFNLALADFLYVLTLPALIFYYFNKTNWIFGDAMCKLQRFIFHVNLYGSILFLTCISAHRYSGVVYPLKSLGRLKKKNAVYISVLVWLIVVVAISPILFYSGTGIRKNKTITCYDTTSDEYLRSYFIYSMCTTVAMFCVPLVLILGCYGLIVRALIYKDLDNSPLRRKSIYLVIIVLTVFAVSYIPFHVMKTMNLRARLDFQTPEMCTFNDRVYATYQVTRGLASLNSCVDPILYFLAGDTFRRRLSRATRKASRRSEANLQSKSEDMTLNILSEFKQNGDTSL
Procedure, shortened: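 Guinea pig taenia coli precontracted with 50 nM carbachol; relaxation to applied P2Y agonists expressed as percentage relaxation against negative log molar agonist concentration.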

[7] = target: T3, adenylyl cyclase linked P2Y receptor (C6 rat glioma cells) (Rattus norvegicus, UniProt Q9EPX4); test: Inhibition of adenylyl cyclase in C6 rat glioma cells; assay type: cell-based; details: versus phospholipase C linked receptor
T3 construct: endogenous in cells; host or cells: C6 rat glioma cells
T3 sequence (Q9EPX4 whole entry): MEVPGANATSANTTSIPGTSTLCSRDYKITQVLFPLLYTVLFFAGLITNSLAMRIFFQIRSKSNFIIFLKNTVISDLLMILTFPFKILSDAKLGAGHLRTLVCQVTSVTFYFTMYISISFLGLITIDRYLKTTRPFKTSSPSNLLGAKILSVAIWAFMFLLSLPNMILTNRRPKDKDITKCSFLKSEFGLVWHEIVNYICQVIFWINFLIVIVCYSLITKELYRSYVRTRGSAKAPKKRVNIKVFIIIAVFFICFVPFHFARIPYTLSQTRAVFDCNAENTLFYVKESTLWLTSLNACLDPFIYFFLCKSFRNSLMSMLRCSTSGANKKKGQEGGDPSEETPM
Method: This example illustrates the inhibition of adenylyl cyclase activity in C6 rat glioma cells, as a function of the presence of certain ATP analogs in the medium in which the C6 cells were cultured.
Cells were labelled by incubation for 2 hours in the presence of 1 to 2 mCi of tritiated adenine/ml in the medium. Cells were washed twice with HEPES (20 mM, pH 7.5)-buffered Eagle's medium and then preincubated for 10 minutes at 37° C. with fresh medium containing 200 μM 3-isobutyl-1-methylxanthine. Agonist incubations were initiated by the simultaneous addition of 10 μM isoproterenol and various concentrations of nucleotides. The reactions were stopped after 10 minutes of aspiration of the nucleotide-containing medium and addition of 1 ml of ice-cold 5% trichloroacetic acid.

[8] = listed as 8-(6-Aminohexylamino)ATP
[9] = listed as 8-(6-amino-hexylamino)ATP
[10] = listed as adenosine-N1-oxide triphosphate

SMILES | relaxation pD2, aorta [1] | overall activity in words, P2Y systems [2] | overall activity in words, P2X systems [3] | EC50 [4] [nM] | activity/potency in words, mesenteric artery [5] | EC50 [6] [µM] | activity/potency/selectivity in words, aorta [1] | further results
NCCCCCCNc1nc2c(N)ncnc2n1[C@@H]1O[C@H](COP(=O)(O)OP(=O)(O)OP(=O)(O)O)[C@@H](O)[C@H]1O [8-(6-Aminohexylamino)-ATP, 8-(6-aminohexylamino)-ATP, reference compound] | 7.3 | specific for P2Y receptors | inactive in the P2X receptor systems | 8200 ± 1200 | no activity at the mesenteric artery P2Y receptor |  |  | activity/potency/selectivity in words, aorta [1, 8]: selective for the endothelial receptors of the rabbit aorta versus the mesenteric artery and taenia coli; activity/potency/selectivity in words, aorta [1, 9]: much more potent than ATP; activity/potency/selectivity in words, aorta ([1]; listed as 8-(6-aminohexylamino)ATP): high selectivity; activity/potency in words, turkey erythrocyte [4, 8]: somewhat active in turkey erythrocytes; activity/potency in words, turkey erythrocyte [4, 9]: less potent than ATP at the turkey erythrocyte P2Y receptor
Nc1c2ncn([C@@H]3O[C@H](COP(=O)(O)OP(=O)(O)OP(=O)(O)O)[C@@H](O)[C@H]3O)c2nc[n+]1[O-] [Adenosine N1-oxide 5'-triphosphate, adenosine N1-oxide 5'-triphosphate, reference compound] | 6.7 | specific for P2Y receptors | inactive in the P2X receptor systems | 16900 | no activity at the mesenteric artery P2Y receptor | 12.6 | selective for the endothelial receptors of the rabbit aorta versus the mesenteric artery and taenia coli | activity/potency/selectivity in words, aorta [1, 10]: much more potent than ATP; activity/potency in words, turkey erythrocyte [4]: somewhat active in turkey erythrocytes; activity/potency in words, turkey erythrocyte [4, 10]: less potent than ATP at the turkey erythrocyte P2Y receptor
CNc1ncnc2c1ncn2[C@@H]1O[C@H](COP(=O)(O)OP(=O)(O)OP(=O)(O)O)[C@@H](O)[C@H]1O [N^6 -Me-ATP, N^6 -Methyl-adenosine 5'-triphosphate] |  | inactive in vascular smooth muscle |  | 19000 | not activated at concentrations of the N^6 -methyl derivative as high as 10^-5 M | 1.58 | significantly less activated | selectivity for the adenylyl cyclase linked receptor, in words [7]: slightly selective of the phospholipase C-linked receptor; activity/potency in words, taenia coli ([6]; listed as N^6 -methyl ATP): equipotent with ATP in the taenia coli; activity/potency in words, taenia coli ([6]; listed as N^6 -methylATP): selectivity; also recorded: at an equal level as if activated by ATP itself; overall activity in words, P2X systems ([3]; listed as N^6 -methyl ATP): inactive in P2X preparations; overall activity in words, P2X systems ([3]; listed as N^6 -methyl-ATP): inactive in the P2X receptor systems; fold less potent than ATP, turkey erythrocyte ([4]; relative to ATP): 7 -fold
